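Dose response: 5 concentrations. Exposure: 48 h. Format: 96-well plates. Endpoint: linear interpolation; highest concentration if not reached. At the GI50, growth is halved. At the TGI there is no net growth.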
How the values were obtained:
Assay in all cases: DTP human tumour cell line panel, 48 h
[1] = system: OVCAR-4 ovarian
[2] = system: T-47D breast
[3] = system: COLO 205 colon
[4] = system: UACC-62 melanoma
[5] = system: OVCAR-3 ovarian
[6] = system: DU-145 prostate
[7] = system: NCI-H23 lung
[8] = system: MDA-MB-231 breast
[9] = system: RPMI-8226 leukemia
[10] = system: HOP-62 NSCLC
[11] = system: MDA-MB-435
[12] = system: LOX IMVI melanoma
[13] = system: SK-OV-3 ovarian
[14] = system: NCI/ADR-RES ovarian
[15] = system: HT29 colon
[16] = system: SF-295 CNS
[17] = system: EKVX NSCLC
[18] = system: HCC-2998 colon
[19] = system: CCRF-CEM leukemia
[20] = system: HS 578T breast
[21] = system: HL-60(TB) leukemia
[22] = system: M14 melanoma
[23] = system: NCI-H226 lung
[24] = system: A498 renal
[25] = system: SW-620 colon
[26] = system: SK-MEL-5 melanoma
[27] = system: UO-31 renal
[28] = system: SK-MEL-2 melanoma
[29] = system: CAKI-1 renal
[30] = system: SN12C renal
[31] = system: SF-268 CNS
[32] = system: K-562 leukemia
[33] = system: SF-539 CNS
[34] = system: MALME-3M melanoma
[35] = system: HCT-116 colon
[36] = system: A549 NSCLC
[37] = system: MCF7 breast
[38] = system: SNB-75 CNS
[39] = system: RXF 393 renal
[40] = system: 786-0 renal
[41] = system: IGROV1 ovarian
[42] = system: U251 CNS
[43] = system: NCI-H460 lung
[44] = system: UACC-257 melanoma
[45] = system: SK-MEL-28 melanoma
[46] = system: HCT-15 colon
[47] = system: SNB-19 CNS
[48] = system: KM12 colon
[49] = system: OVCAR-8 ovarian
[50] = system: PC-3 prostate
[51] = system: OVCAR-5 ovarian
[52] = system: TK-10 renal
[53] = system: MOLT-4 leukemia
[54] = system: ACHN renal
[55] = system: NCI-H522 lung
[56] = system: HOP-92 NSCLC

COc1cc(/C=C/C(=O)c2ccc(Nc3nc(Nc4ccc(F)cc4)nc(Nc4ccc(F)cc4)n3)cc2)cc(OC)c1OC
GI50 [1]: > 100 µM | TGI [1]: > 100 µM | GI50 [2]: 5.76 µM | TGI [2]: > 100 µM | GI50 [3]: 3.5 µM | TGI [3]: > 100 µM | GI50 [4]: 10.7 µM | TGI [4]: 41.4 µM | GI50 [5]: > 100 µM | TGI [5]: > 100 µM | GI50 [6]: > 100 µM | TGI [6]: > 100 µM | GI50 [7]: 4.86 µM | TGI [7]: > 100 µM | GI50 [8]: 15.8 µM | TGI [8]: > 100 µM | GI50 [9]: 1.81 µM | TGI [9]: 35.2 µM | GI50 [10]: 5.26 µM | TGI [10]: > 100 µM | GI50 [11]: 17.1 µM | TGI [11]: > 100 µM | GI50 [12]: 6.73 µM | TGI [12]: > 100 µM | GI50 [13]: 80.7 µM | TGI [13]: > 100 µM | GI50 [14]: 4.69 µM | TGI [14]: > 100 µM | GI50 [15]: 9.36 µM | TGI [15]: > 100 µM | GI50 [16]: 28.8 µM | TGI [16]: > 100 µM | GI50 [17]: 59.1 µM | TGI [17]: > 100 µM | GI50 [18]: 27.7 µM | TGI [18]: > 100 µM | GI50 [19]: 2.35 µM | TGI [19]: > 100 µM | GI50 [20]: 16.7 µM | TGI [20]: > 100 µM | GI50 [21]: 1 µM | TGI [21]: > 100 µM | GI50 [22]: 6.55 µM | TGI [22]: 90.8 µM | GI50 [23]: 3.8 µM | TGI [23]: 29.3 µM | GI50 [24]: 15.7 µM | TGI [24]: 49 µM | GI50 [25]: 7.28 µM | TGI [25]: > 100 µM | GI50 [26]: 3.4 µM | TGI [26]: 30.4 µM | GI50 [27]: 3.75 µM | TGI [27]: > 100 µM | GI50 [28]: 3.99 µM | TGI [28]: 33.2 µM | GI50 [29]: > 100 µM | TGI [29]: > 100 µM | GI50 [30]: 33.6 µM | TGI [30]: > 100 µM | GI50 [31]: 41.2 µM | TGI [31]: > 100 µM | GI50 [32]: 3 µM | TGI [32]: > 100 µM | GI50 [33]: 11.8 µM | TGI [33]: > 100 µM | GI50 [34]: 17.1 µM | TGI [34]: 82.4 µM | GI50 [35]: 2.56 µM | TGI [35]: > 100 µM | GI50 [36]: 8.27 µM | TGI [36]: > 100 µM | GI50 [37]: 5.26 µM | TGI [37]: > 100 µM | GI50 [38]: > 100 µM | TGI [38]: > 100 µM | GI50 [39]: 2.74 µM | TGI [39]: 7.49 µM | GI50 [40]: 2.66 µM | TGI [40]: 12 µM | GI50 [41]: 3.59 µM | TGI [41]: > 100 µM | GI50 [42]: 7.92 µM | TGI [42]: > 100 µM | GI50 [43]: 7.92 µM | TGI [43]: > 100 µM | GI50 [44]: 7.11 µM | TGI [44]: 61.1 µM | GI50 [45]: 26.7 µM | TGI [45]: > 100 µM | GI50 [46]: 5.53 µM | TGI [46]: > 100 µM | GI50 [47]: 76.6 µM | TGI [47]: > 100 µM | GI50 [48]: 8.79 µM | TGI [48]: > 100 µM | GI50 [49]: 1.94 µM | TGI [49]: > 100 µM | GI50 [50]: 3.18 µM | TGI [50]: > 100 µM | GI50 [51]: 20.5 µM | TGI [51]: > 100 µM | GI50 [52]: 35.8 µM | TGI [52]: > 100 µM | GI50 [53]: 1.93 µM | TGI [53]: > 100 µM | GI50 [54]: 21.2 µM | TGI [54]: > 100 µM | GI50 [55]: 3.1 µM | TGI [55]: > 100 µM | GI50 [56]: 2.3 µM | TGI [56]: 42.6 µM
